Results reported in the METLIN SMRT retention time set (Domingo-Almenara et al. 2019).

Assay: gradient 5% acetonitrile 3 min, to 50% in 2 min, to 85% in 15 min, held 3 min, 100 µL/min
Conditions: column: Zorbax Extend-C18 2.1 x 50 mm; eluents: water / acetonitrile, 0.1% formic acid
Outline: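 Pure standards were run in mixtures of ~100 molecules by HPLC coupled to a quadrupole time-of-flight mass spectrometer. The column was a Zorbax Extend-C18 (2.1 × 50 mm, 1.8 μm) at 100 μL/min, with water and acetonitrile each containing 0.1% formic acid, in positive and negative ionization mode. Dead and dwell volumes were 40 μL and 900 μL. Retention time was taken from computationally picked adduct peaks, each manually inspected, with data collected over 3 months.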
With `Cc1ccc(-n2nc(OC(C)C(=O)NCc3ccco3)ccc2=O)cc1C` (centres undefined) the RP-LC retention time was 748 s. Work on `CNC(=O)C1CCCN(c2nc3ncn(CC(=O)NCc4ccc(Cl)cc4)c(=O)c3s2)C1` (centres undefined) yielded an RP-LC retention time of 666 s. Work on `COc1cccc(OCC2c3ccsc3CCN2C(=O)CN(C(C)=O)C2CC2)c1` (centres undefined) yielded an RP-LC retention time of 807 s. In the case of `Cc1nnsc1C(=O)N1CCN(c2nc3ccc(OC(F)(F)F)cc3s2)CC1`, the RP-LC retention time is reported as 903 s. `COC(=O)c1ccc(NC(=O)CN2CCc3[nH]c4c(C)ccc(F)c4c(=O)c3C2)cc1` showed an RP-LC retention time of 604 s. `CCOC(=O)C1CCc2sc(NC(=O)CNC(=O)c3ccc(=O)[nH]c3)nc21` (centres undefined) showed an RP-LC retention time of 591 s. Work on `O=C(NCc1cccc(F)c1)c1cc(N2CCCC2)n2nccc2n1` yielded an RP-LC retention time of 946 s. Compound `COc1ccc(NC(=O)N2c3ccccc3CC2c2nc(C(C)C)no2)c(C)c1` (centres undefined) has an RP-LC retention time of 1220 s. In the case of `CC(C)n1ncc(NC(=O)Cc2ccc(Cl)cc2)c(N2CCOCC2)c1=O`, the RP-LC retention time is reported as 856 s. For `O=C(NC1CC(=O)N(Cc2ccccc2)C1)c1cnccn1` (centres undefined), the RP-LC retention time was 632 s. For `CC(C)c1nncn1C1CCN(C(=O)c2ccc3c(c2)OCO3)C1` (centres undefined), the RP-LC retention time was 612 s. For `COCc1noc([C@@H]2CN(Cc3ccc(Br)o3)C[C@H]2C(N)=O)n1`, the RP-LC retention time was 565 s. In the case of `Cc1ccc(C)c(C(=O)N2C[C@H](c3nc(-c4cccnc4)no3)[C@@H](C)C2)c1`, the RP-LC retention time is reported as 836 s. Work on `CCN1CCN(c2cc(C(=O)O)c3cc(NS(=O)(=O)c4cccc(F)c4)ccc3n2)CC1` yielded an RP-LC retention time of 600 s. With `Cn1cc(-c2nc(C(=O)NCc3cccc(Cl)c3)cs2)c2cccnc21` the RP-LC retention time was 964 s. Work on `CNC(=O)N1CC(c2nc(-c3ccccc3)no2)C2(CCOCC2)C1` (centres undefined) yielded an RP-LC retention time of 679 s. In the case of `Cn1cc(CC(=O)NCC#CCN2CCc3ccccc3C2)c2ccccc21`, the RP-LC retention time is reported as 578 s. With `COc1ccccc1-c1nc(Cn2nnc(-c3nc(-c4ccccn4)no3)c2C)c(C)o1` the RP-LC retention time was 827 s. For `COCCn1cc(CCNC(=O)Nc2cccc(Cl)c2F)c2cccnc21`, the RP-LC retention time was 798 s. Work on `COC(=O)c1c(-c2ccccc2)csc1NC(=O)c1ccnn1C` yielded an RP-LC retention time of 1110 s. With `NC(=O)COc1cc(-c2ccccc2)nc2ccc(NC(=O)C3CC3)cc12` the RP-LC retention time was 610 s. `Cn1c(C2CCN(C(=O)NCCc3ccccc3)CC2)cc(=O)n2nccc12` showed an RP-LC retention time of 619 s. With `CCOC(=O)c1nc(Nc2ccc(F)cc2Cl)c2ccccc2n1` the RP-LC retention time was 890 s. `COCCCNC(=O)CC1Sc2ncccc2N(C)C1=O` (centres undefined) gave an RP-LC retention time of 600 s. With `O=C(Nc1cccc(-c2ccc3nnc(-c4cccs4)n3n2)c1)C1CCCC1` the RP-LC retention time was 792 s. Compound `COc1ccc(-c2ncc3c(=O)n(CC(=O)N4CCCC4)c(=O)n(C)c3n2)cc1` has an RP-LC retention time of 815 s. `CCn1nnc(NCc2ccc(-c3cc(Cl)cc(Cl)c3)o2)n1` gave an RP-LC retention time of 1140 s. With `O=c1n(CCc2ccccc2)nc2c(S(=O)(=O)N3CCN(c4ccc(F)cc4)CC3)cccn12` the RP-LC retention time was 989 s. Compound `COc1ccc(Cl)cc1NC(=O)NCc1ccnc(N2CCSCC2)c1` has an RP-LC retention time of 667 s. Compound `COCc1c(C(=O)O)nnn1-c1cccc(OC)c1` has an RP-LC retention time of 668 s. `Fc1ccc(F)c(-c2nc(-c3ccc4c(c3)ncn4CCN3CCCC3)no2)c1` gave an RP-LC retention time of 624 s. Compound `N#Cc1cccc(NC(=O)CSc2nc(N3CCc4ccccc4C3)nc3ccccc23)c1` has an RP-LC retention time of 862 s. Work on `Cc1nn(-c2ccc(F)cc2)c2nc(N3CCCC(C(=O)NC4CCCCCC4)C3)sc12` (centres undefined) yielded an RP-LC retention time of 1240 s. Work on `COc1ccc(NC(=O)N2CCC(CN3CCCC(C)C3)CC2)cc1Cl` (centres undefined) yielded an RP-LC retention time of 629 s. In the case of `COc1ccc(-c2cc(C(=O)NC3CCCC3)nn2C2CCS(=O)(=O)C2)cc1` (centres undefined), the RP-LC retention time is reported as 849 s. With `CCn1c(=O)c(C(=O)NC2CC2)nc2cc(C)c(C)cc21` the RP-LC retention time was 887 s. Compound `Cc1ccc(C(=O)NCCn2c(=O)n(Cc3ccccc3)c3cccnc32)s1` has an RP-LC retention time of 805 s. `CCOc1ccc(CNC(=O)C2CCN(S(=O)(=O)c3cn(CC)cn3)CC2)cc1OC` showed an RP-LC retention time of 676 s. `COCCN1CC2(CCCC2)N(Cc2ccc(C(C)C)cc2)CC1=O` showed an RP-LC retention time of 690 s. Work on `CC1CCCCN1Cc1nc(Cn2ccn3nc(-c4ccccc4)cc3c2=O)no1` (centres undefined) yielded an RP-LC retention time of 658 s. In the case of `COc1ccc(OC)c(NC(=O)Cc2csc3nc(-c4ccc(C)c(C)c4)cn23)c1`, the RP-LC retention time is reported as 772 s. Compound `Cc1ccsc1C(=O)Nc1ccc(-c2nc(-c3ccccc3)co2)cc1` has an RP-LC retention time of 1160 s. For `CCOc1ccc(-c2ccc(=O)n(Cc3nc(-c4cccc(OCC)c4)no3)n2)cc1`, the RP-LC retention time was 1150 s. Compound `Cc1ccc(CCNC(=O)C2CCN(S(=O)(=O)c3ccc4c(c3)CCCC(=O)N4)CC2)cc1` has an RP-LC retention time of 781 s. `COc1ccc(CCC(=O)N2CCC3(C2)C(=O)N(C)c2ccccc23)cc1` (centres undefined) showed an RP-LC retention time of 872 s. For `CS(=O)(=O)N1CCC(OC2CCN(C(=O)Cc3c[nH]c4ccccc34)CC2)CC1`, the RP-LC retention time was 688 s. For `CCc1ccc(C2=C(C)C(N3CCCN(C(=O)NC)CC3)=NS2(=O)=O)cc1`, the RP-LC retention time was 746 s. For `Cc1noc(-c2ccnc(-n3cnc(C(=O)NCc4cccc(Cl)c4)c3)c2)n1`, the RP-LC retention time was 760 s. Compound `Cc1ccccc1-c1nc(C2CCN(S(=O)(=O)c3cccc(F)c3)CC2)no1` has an RP-LC retention time of 1160 s. `Nc1ccc(C(=O)Nc2ccc(Nc3ccncc3)cc2)cc1` gave an RP-LC retention time of 602 s. In the case of `Cc1nn(-c2nc(-c3ccc(Cl)cc3)cs2)c(C)c1CC(=O)NCc1ccccc1`, the RP-LC retention time is reported as 1170 s. Compound `Cc1csc(NC(=O)CSc2nnc(NC(=O)c3cc(C)on3)s2)n1` has an RP-LC retention time of 692 s. `Cc1[nH]c(-c2ccc(F)cc2)cc1C(=O)N1CC=C(c2ccccc2)CC1` showed an RP-LC retention time of 1030 s. `CN(C)c1nc2ncn3c(=O)n(CC(=O)Nc4ccc(F)c(F)c4)nc3c2s1` gave an RP-LC retention time of 696 s. Work on `COCCN1[C@@H]2CCN(C(=O)Nc3ccccc3F)C[C@@]2(C(=O)N2CCOCC2)CCS1(=O)=O` yielded an RP-LC retention time of 676 s. `CCCn1c(=O)c2c(C(=O)NCc3ccc(Cl)cc3)cc(=O)n(CCC)c2n(C)c1=O` gave an RP-LC retention time of 1060 s. `Cc1cc(S(=O)(=O)N2CCN(C3CCN(Cc4ccccn4)C3=O)CC2)ccc1Cl` (centres undefined) gave an RP-LC retention time of 622 s. For `O=C(NCc1ccco1)N1c2ccccc2CC1c1nc(C2CC2)no1` (centres undefined), the RP-LC retention time was 891 s. In the case of `CC(C)Cn1cc(CCNS(=O)(=O)Cc2ccc(Cl)cc2)c2cccnc21`, the RP-LC retention time is reported as 986 s. Compound `Cc1cccc(NS(=O)(=O)c2c(C)sc(C)c2-c2cc(C(F)(F)F)on2)c1` has an RP-LC retention time of 1180 s. Compound `CS(=O)(=O)N(Cc1ccccn1)C1CN(C(=O)C2CCC2)C1` has an RP-LC retention time of 603 s. With `CCOC(=O)c1noc2ncnc(N3CCc4ccccc43)c12` the RP-LC retention time was 948 s. Compound `O=C(NCc1ccccn1)C1CCN(c2nc3ccc(-c4cncnc4)nc3s2)CC1` has an RP-LC retention time of 599 s. In the case of `COc1ccc(NC(=O)Nc2nccn(-c3cccc(F)c3)c2=O)cc1OC`, the RP-LC retention time is reported as 798 s. For `O=c1[nH]cc(S(=O)(=O)N2CCc3ccccc3C2)c(=O)[nH]1`, the RP-LC retention time was 663 s. For `Cc1cc(C)c(C)c(S(=O)(=O)N2CCC3(CCN(c4cccnc4)C3)C2)c1C` (centres undefined), the RP-LC retention time was 762 s. In the case of `COc1ccc(OC)c(N2C(=O)c3cccnc3C2Nc2ccc(C(C)=O)cc2)c1` (centres undefined), the RP-LC retention time is reported as 698 s. Compound `Nc1nc(N2CCOCC2)nc2ccccc12` has an RP-LC retention time of 572 s. `Cc1cc(C)n(CCNC(=O)c2ccc(N3CCOCC3)nn2)n1` showed an RP-LC retention time of 572 s. `COc1cccc(CNC(=O)C2CCN(S(=O)(=O)c3ccc4c(c3)NC(=O)C(C)O4)CC2)c1` (centres undefined) gave an RP-LC retention time of 757 s. In the case of `CCNc1nc(C)cc(N2CCN(S(=O)(=O)c3cc(C(C)C)ccc3C)CC2)n1`, the RP-LC retention time is reported as 838 s. In the case of `CN(Cc1ccccc1)C(=O)c1ccc2c(c1)N(CC(=O)N1CCCC1)C(=O)CO2`, the RP-LC retention time is reported as 723 s. For `COc1ccc(NS(=O)(=O)c2c(C)nn(-c3ccc(-c4ccccc4)nn3)c2C)cc1OC`, the RP-LC retention time was 895 s. `CCN1C(=O)c2cc(C(=O)NCc3ccccc3C)nn2CC1(C)C(=O)NC1CCCC1` (centres undefined) showed an RP-LC retention time of 884 s. With `COc1ccc2[nH]c(C(=O)N[C@@H](C)C(=O)NCCc3c[nH]c4ccccc34)cc2c1OC` the RP-LC retention time was 769 s. Compound `O=C(Nc1cccc(-c2ccc(N3CCOCC3)nn2)c1)Nc1ccccc1F` has an RP-LC retention time of 688 s. `COC(=O)c1ccccc1Nc1c(-c2cccc(Br)c2)nc2cnccn12` showed an RP-LC retention time of 1090 s. `COc1cccc(-c2csc(Nc3ccc(C)cn3)n2)c1` gave an RP-LC retention time of 902 s. For `O=C(NCc1ccco1)C1CCN(Cc2cc3ccccc3n2Cc2ccccc2Cl)CC1`, the RP-LC retention time was 790 s. `CCOC(=O)c1ccc(OC(=O)CCCCCN=C(N)N)cc1` gave an RP-LC retention time of 750 s. `Cc1ccn2c(Nc3ccc4c(c3)OCCO4)c(-c3ccc(N(C)C)cc3)nc2c1` gave an RP-LC retention time of 734 s. For `Cc1ccc(C2Cn3nnc(-c4nc(-c5ccccc5Br)no4)c3CO2)c(C)c1` (centres undefined), the RP-LC retention time was 1270 s. `CCCNc1nccn(C(C)C)c1=O` showed an RP-LC retention time of 544 s. In the case of `NC(=O)c1nsc2c(=O)n(CC(=O)NC3CCCC3)cnc12`, the RP-LC retention time is reported as 596 s. Compound `Cc1ccccc1NS(=O)(=O)c1cc(-c2cc(C(F)(F)F)on2)sc1C` has an RP-LC retention time of 1180 s. Work on `O=C(Nc1ccccc1)C1CCCN(c2ncnc3c2nc2n3CCCCC2)C1` (centres undefined) yielded an RP-LC retention time of 774 s. Work on `COc1ccc(-c2nc(C3CC(=O)N(Cc4ccccc4)C3)no2)cc1` (centres undefined) yielded an RP-LC retention time of 946 s. `CCOc1ccc(-c2nc(CN(c3ccccc3)S(=O)(=O)c3cccs3)c(C)o2)cc1` gave an RP-LC retention time of 1220 s. For `Cc1ccc(CN2CCCC(c3nc(C(C)C)no3)CCNC(=O)CC2)s1` (centres undefined), the RP-LC retention time was 661 s.
